One may read the MIC as the lowest concentration that inhibits growth of the organism. Low values mean inhibition by little substance, high ones a need for much substance. One may read the IC50 as the midpoint of a concentration-inhibition curve. Low values mean greater potency in that assay, high ones weaker potency in that assay.

≈ marks a conversion by molar mass, not a printed value.

In test [1] the test system is Cryptococcus neoformans. The test is described as follows: Antifungal activity against Cryptococcus neoformans IM 031706 by micro-broth dilution method. In kind it is functional. For orientation: In broth dilution the organism is exposed to a series of concentrations in liquid medium.
The subject of test [2] is Cryptococcus neoformans. The test is described as follows: Antifungal activity against Cryptococcus neoformans IM 00319 by microbroth dilution method. In kind it is functional.
The test system of test [3] is Cryptococcus neoformans. The experiment in a line: Antifungal activity against Cryptococcus neoformans IM 031631 by micro-broth dilution method. Format: functional.
Test [4] concerns Cryptococcus neoformans. The experiment in a line: Antifungal activity against Cryptococcus neoformans IM 042074 by micro-broth dilution method. In kind it is functional.
Test [5] has as its system Cryptococcus neoformans. The experiment in a line: Antifungal activity against Cryptococcus neoformans IM 983036 by micro-broth dilution method. Format: functional.
The test system of test [6] is Cryptococcus neoformans. The test is described as follows: Antifungal activity against Cryptococcus neoformans IM 972751 by microbroth dilution method. In kind it is functional.
For test [7], the system named is Cryptococcus neoformans. The experiment in a line: Antifungal activity against Cryptococcus neoformans IM 972724 by micro-broth dilution method. Format: functional.
The subject of test [8] is Cryptococcus neoformans. The test is described as follows: Antifungal activity against Cryptococcus neoformans IM 961951 by micro-broth dilution method. In kind it is functional.
In test [9] the test system is Cryptococcus neoformans. The test is described as follows: Antifungal activity against Cryptococcus neoformans IM 983040 by micro-broth dilution method. Format: functional.
Test [10] deals with Trichophyton mentagrophytes. The experiment in a line: Antifungal activity against Trichophyton mentagrophytes ATCC 9972 by micro-broth dilution method. Format: functional.
In another test the test system is MCF7. The experiment in a line: Cytotoxicity against human MCF7 cells by SRB assay. In kind it is functional, cell-based. On the technique in general: Sulforhodamine B stains cellular protein and so reports cell mass.
The subject of the next test is Nannizzia gypsea. The test is described as follows: Antifungal activity against Microsporum gypseum C115 by microbroth dilution method. Format: functional.
The next test relates to Aspergillus niger. The experiment in a line: Antifungal activity against Aspergillus niger ATCC 9029 by micro-broth dilution method. In kind it is functional.
A further test deals with Aspergillus flavus. The experiment in a line: Antifungal activity against Aspergillus flavus ATCC 9170 by micro-broth dilution method. Format: functional.
Another test has as its system Saccharomyces cerevisiae. The experiment in a line: Antifungal activity against Saccharomyces cerevisiae ATCC 9763 by microbroth dilution method. Format: functional.
In a further test the test system is Candida albicans. The experiment in a line: Antifungal activity against Candida albicans ATCC 10231 by micro-broth dilution method. Format: functional.
For another test, the system named is Aspergillus fumigatus. The test is described as follows: Antifungal activity against Aspergillus fumigatus ATCC 26934 by micro-broth dilution method. In kind it is functional.
A further test relates to Candida tropicalis. The experiment in a line: Antifungal activity against Candida tropicalis C131 by micro-broth dilution method. Format: functional.
In another test the test system is Trichophyton rubrum. The test is described as follows: Antifungal activity against Trichophyton rubrum C113 by microbroth dilution method. In kind it is functional.
In the next test the test system is NCI-H460. The test is described as follows: Cytotoxicity against human H460 cells by SRB assay. In kind it is functional, cell-based.
The subject of test [11] is Cryptococcus neoformans. The test is described as follows: Antifungal activity against Cryptococcus neoformans ATCC 32264 by microbroth dilution method. In kind it is functional.
The next test relates to SF-268. The experiment in a line: Cytotoxicity against human SF268 cells by SRB assay. Format: functional, cell-based.

On to `OC(Cn1cncn1)(Cn1cncn1)c1ccc(F)cc1F` [FLUCONAZOLE], for which the MIC is 3.9 µg/mL (≈ 12.7 µM) in the test with Cryptococcus neoformans [1]; 1.9 µg/mL (≈ 6.2 µM) in the test on Cryptococcus neoformans [2]; 31.2 µg/mL (≈ 102 µM) in the test on Cryptococcus neoformans [3]; 3.9 µg/mL (≈ 12.7 µM) against Cryptococcus neoformans [4]; 15.6 µg/mL (≈ 50.9 µM) in the test with Cryptococcus neoformans [5]; 31.2 µg/mL (≈ 102 µM) with Cryptococcus neoformans [6]. Besides, the values for the MIC in the test on Cryptococcus neoformans [7], in the test with Cryptococcus neoformans [8] and in the test on Cryptococcus neoformans [9] were 3.9 µg/mL (≈ 12.7 µM), 7.8 µg/mL (≈ 25.5 µM) and 7.8 µg/mL (≈ 25.5 µM), respectively.
Turning to `O=[N+]([O-])c1cccc(NCc2ccncc2)c1`, the minimal inhibitory concentration (MIC) in test [10] turned out to be 12.5 µg/mL (≈ 54.5 µM); in the test on Nannizzia gypsea, 12.5 µg/mL (≈ 54.5 µM); in the test with Aspergillus niger, 100 µg/mL (≈ 436 µM); in the test on Aspergillus flavus, 200 µg/mL (≈ 872 µM); against Saccharomyces cerevisiae, 50 µg/mL (≈ 218 µM); against Candida albicans, 100 µg/mL (≈ 436 µM). Also, the MIC with Aspergillus fumigatus stood at 100 µg/mL (≈ 436 µM); in the test on Candida tropicalis, 100 µg/mL (≈ 436 µM); against Trichophyton rubrum it was 6.25 µg/mL (≈ 27.3 µM); with Cryptococcus neoformans [11], 50 µg/mL (≈ 218 µM). Besides, the concentration for half-maximal inhibition (IC50) in the test on MCF7 is over 10 µg/mL; with NCI-H460, over 10 µg/mL; in the test with SF-268 it was under 10 µg/mL.
For `Nc1nc(=O)[nH]cc1F` [FLUCYTOSINE], the MIC turned out to be 3.9 µg/mL (≈ 30.2 µM) against Cryptococcus neoformans [1]; 15.6 µg/mL (≈ 121 µM) in the test with Cryptococcus neoformans [2]; 7.8 µg/mL (≈ 60.4 µM) against Cryptococcus neoformans [3]; 3.9 µg/mL (≈ 30.2 µM) with Cryptococcus neoformans [4]; 7.8 µg/mL (≈ 60.4 µM) against Cryptococcus neoformans [6]; 3.9 µg/mL (≈ 30.2 µM) against Cryptococcus neoformans [7]. In addition, the MIC in the test with Cryptococcus neoformans [8] and in the test with Cryptococcus neoformans [9] was 7.8 µg/mL (≈ 60.4 µM) each time.
In the case of `CCC(C)n1ncn(-c2ccc(N3CCN(c4ccc(OCC5COC(Cn6cncn6)(c6ccc(Cl)cc6Cl)O5)cc4)CC3)cc2)c1=O` (centres undefined) [ITRACONAZOLE], the MIC against Cryptococcus neoformans [1] was under 0.015 µg/mL; in the test on Cryptococcus neoformans [2], under 0.015 µg/mL; against Cryptococcus neoformans [3], 0.5 µg/mL (≈ 0.709 µM); with Cryptococcus neoformans [4], under 0.015 µg/mL; against Cryptococcus neoformans [5], under 0.015 µg/mL; against Cryptococcus neoformans [6], 0.25 µg/mL (≈ 0.354 µM). For the same compound, the minimum inhibitory concentration (MIC) was 0.25 µg/mL (≈ 0.354 µM) in the test on Cryptococcus neoformans [7], under 0.015 µg/mL against Cryptococcus neoformans [8] and under 0.015 µg/mL against Cryptococcus neoformans [9].
As for `CC(=O)N1CCN(c2ccc(OC[C@H]3CO[C@](Cn4ccnc4)(c4ccc(Cl)cc4Cl)O3)cc2)CC1` [KETOCONAZOLE], the minimum inhibitory concentration (MIC) in test [10] turned out to be 0.025 µg/mL (≈ 0.047 µM); in the test on Nannizzia gypsea it was 0.05 µg/mL (≈ 0.0941 µM); against Aspergillus niger it was 0.25 µg/mL (≈ 0.47 µM); against Aspergillus flavus, 0.5 µg/mL (≈ 0.941 µM); against Saccharomyces cerevisiae it was 0.5 µg/mL (≈ 0.941 µM); with Candida albicans, 0.5 µg/mL (≈ 0.941 µM). Also, the MIC with Aspergillus fumigatus is 0.125 µg/mL (≈ 0.235 µM); against Candida tropicalis it was 0.125 µg/mL (≈ 0.235 µM); in the test with Trichophyton rubrum, 0.025 µg/mL (≈ 0.047 µM); in the test with Cryptococcus neoformans [11] it was 0.25 µg/mL (≈ 0.47 µM).
As to `Oc1ccc(CNc2ccccc2)cc1`, the MIC in [10] is 25 µg/mL (≈ 125 µM); with Nannizzia gypsea it was 50 µg/mL (≈ 251 µM); with Aspergillus niger, over 250 µg/mL; in the test on Aspergillus flavus, over 250 µg/mL; with Saccharomyces cerevisiae, 250 µg/mL (≈ 1250 µM); in the test on Candida albicans, over 250 µg/mL. For the same compound, the minimal inhibitory concentration (MIC) was over 250 µg/mL against Aspergillus fumigatus, 250 µg/mL (≈ 1250 µM) with Candida tropicalis, 25 µg/mL (≈ 125 µM) in the test with Trichophyton rubrum and over 250 µg/mL with Cryptococcus neoformans [11].
As for `C=CCC(Nc1ccc(Cl)cc1)c1ccsc1` (centres undefined), the minimal inhibitory concentration (MIC) (in [10]; in the test on Nannizzia gypsea; against Aspergillus niger; against Aspergillus flavus; against Saccharomyces cerevisiae; in the test with Candida albicans) was over 250 µg/mL each time. Besides, the MIC is over 250 µg/mL in the test on Aspergillus fumigatus, over 250 µg/mL in the test with Candida tropicalis, over 250 µg/mL against Trichophyton rubrum and 250 µg/mL (≈ 948 µM) in the test on Cryptococcus neoformans [11].
In the case of `Cc1cc(C)cc(NCc2ccccn2)c1`, the MIC is 50 µg/mL (≈ 236 µM) in [10]; 50 µg/mL (≈ 236 µM) in the test with Nannizzia gypsea; 100 µg/mL (≈ 471 µM) in the test with Aspergillus niger; 100 µg/mL (≈ 471 µM) against Aspergillus flavus; over 250 µg/mL with Saccharomyces cerevisiae; over 250 µg/mL in the test with Candida albicans. Moreover, the MIC stood at 100 µg/mL (≈ 471 µM) with Aspergillus fumigatus, 200 µg/mL (≈ 942 µM) in the test on Candida tropicalis, 50 µg/mL (≈ 236 µM) with Trichophyton rubrum and 50 µg/mL (≈ 236 µM) against Cryptococcus neoformans [11].
Turning to `c1ccc(NCc2ccoc2)cc1`, the MIC in [10] was found to be 125 µg/mL (≈ 722 µM); in the test on Nannizzia gypsea, 250 µg/mL (≈ 1440 µM); in the test on Aspergillus niger it was 250 µg/mL (≈ 1440 µM); in the test on Aspergillus flavus, 250 µg/mL (≈ 1440 µM); with Saccharomyces cerevisiae it was 250 µg/mL (≈ 1440 µM); with Candida albicans it was 250 µg/mL (≈ 1440 µM). Moreover, the MIC worked out at 250 µg/mL (≈ 1440 µM) in the test on Aspergillus fumigatus, 250 µg/mL (≈ 1440 µM) against Candida tropicalis, 125 µg/mL (≈ 722 µM) with Trichophyton rubrum and 125 µg/mL (≈ 722 µM) against Cryptococcus neoformans [11].
On to `N#CC(Nc1ccccc1)c1ccncc1` (centres undefined), for which the MIC in test [10] is 125 µg/mL (≈ 597 µM); in the test on Nannizzia gypsea, 250 µg/mL (≈ 1190 µM); in the test with Aspergillus niger, 250 µg/mL (≈ 1190 µM); with Aspergillus flavus it was 250 µg/mL (≈ 1190 µM); in the test on Saccharomyces cerevisiae, over 250 µg/mL; against Candida albicans it was over 250 µg/mL. Also, the MIC against Aspergillus fumigatus was 250 µg/mL (≈ 1190 µM); against Candida tropicalis it was over 250 µg/mL; against Trichophyton rubrum, 125 µg/mL (≈ 597 µM); with Cryptococcus neoformans [11], 250 µg/mL (≈ 1190 µM).

The values above are taken from ChEMBL document CHEMBL1143950, “Antifungal and cytotoxic activities of some N-substituted aniline derivatives bearing a hetaryl fragment” (Bioorg Med Chem, 2008).
